The values that follow come from patent US4720458A, “Heat sensitive bacterial alkaline phosphatase” (priority 1983, dated 1988).

Each structure is given as a SMILES string.

Assay [1] concerns the target E. coli alkaline phosphatase (APase) (Escherichia coli, UniProt P00634). The assay is described as follows: E. coli APase inactivation by EDTA (comparison enzyme). It counts as biochemical. The conditions noted are these: read-out: EDTA concentration giving 50% inactivation of E. coli APase.
The subject of assay [2] is HK-47 alkaline phosphatase (APase) from Antarctic psychrophilic marine bacterium strain HK-47 (ATCC 39469). As for the experimental part:
APase activity was routinely assayed at 25° C. for 30 min in 100 μl reaction mixture containing 2 mM p-nitrophenyl phosphate, 5 mM CaCl2, 0.1M CAPS-NaOH buffer pH 9.5. The reaction was stopped by adding 300 μl of 13% (W/V) EDTA-1N NaOH to the reaction mixture. Control mixtures were similarly prepared, except that 13% EDTA-1N NaOH was added before the enzyme activity was assayed. APase activity was measured as the difference in absorbance at 410 nm between samples and control. One unit of APase activity is expressed as 1 micromole of p-nitrophenol (pNp) liberated per minute at 25° C. under the assay conditions. Protein concentration was determined by the Bio-Rad protein assay kit. Bovine serum albumin (BSA) was used as the standard. Homogeneity of the APase was examined by polyacrylamide gel electrophoresis and Bio-Rad (Bio-Rad laboratories, Richmond, CA.) silver stain.

E. coli alkaline phosphatase (APase), sequence (P00634 22-471): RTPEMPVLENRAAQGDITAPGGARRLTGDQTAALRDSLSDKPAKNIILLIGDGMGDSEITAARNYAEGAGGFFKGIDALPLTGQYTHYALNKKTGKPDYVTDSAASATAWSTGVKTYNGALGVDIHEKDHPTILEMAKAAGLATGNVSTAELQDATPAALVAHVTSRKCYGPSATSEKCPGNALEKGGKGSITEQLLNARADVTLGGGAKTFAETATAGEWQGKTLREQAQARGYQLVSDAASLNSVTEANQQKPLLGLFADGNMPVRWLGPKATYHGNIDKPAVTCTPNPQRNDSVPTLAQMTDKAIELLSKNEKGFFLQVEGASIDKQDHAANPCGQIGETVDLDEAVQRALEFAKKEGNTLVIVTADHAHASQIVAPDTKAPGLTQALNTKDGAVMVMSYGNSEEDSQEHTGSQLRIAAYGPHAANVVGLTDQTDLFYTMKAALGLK

On to `O=C(O)CN(CCN(CC(=O)O)CC(=O)O)CC(=O)O` [EDTA], for which the IC50 in assay [1] is 10 mM; in assay [2] (read-out: EDTA concentration inhibiting HK-47 APase activity 50%, HK-47 APase, 'as little as'), 0.1 mM. Moreover, the “inhibition of HK-47 APase activity” value in assay [2] (at 1 mM EDTA) is approximately 100%. In addition, the “sensitivity to EDTA of HK-47 APase relative to E. coli APase” value in assay [2] (ratio of the 50% inhibition concentrations, E. coli vs HK-47) stood at 100 fold.
